# Measurements taken from ChEMBL document CHEMBL4011641, “Prodrugs of Pyrazolo[3,4-d]pyrimidines: From Library Synthesis to Evaluation as Potential Anticancer Agents in an Orthotopic Glioblastoma Model” (J Med Chem, 2017).
# How the values were obtained:
# [1] = Drug uptake in BALB/C mouse adipose tissue at 50 mg/kg, ip via bolus administration measured at 24 hrs post dose by UV/LC-MS; assay type: ADME, organism-based; conditions: in vivo
# [2] = target: Tyrosine-protein kinase ABL1 (Homo sapiens, UniProt P00519)
# Chain of Tyrosine-protein kinase ABL1 (P00519 whole entry): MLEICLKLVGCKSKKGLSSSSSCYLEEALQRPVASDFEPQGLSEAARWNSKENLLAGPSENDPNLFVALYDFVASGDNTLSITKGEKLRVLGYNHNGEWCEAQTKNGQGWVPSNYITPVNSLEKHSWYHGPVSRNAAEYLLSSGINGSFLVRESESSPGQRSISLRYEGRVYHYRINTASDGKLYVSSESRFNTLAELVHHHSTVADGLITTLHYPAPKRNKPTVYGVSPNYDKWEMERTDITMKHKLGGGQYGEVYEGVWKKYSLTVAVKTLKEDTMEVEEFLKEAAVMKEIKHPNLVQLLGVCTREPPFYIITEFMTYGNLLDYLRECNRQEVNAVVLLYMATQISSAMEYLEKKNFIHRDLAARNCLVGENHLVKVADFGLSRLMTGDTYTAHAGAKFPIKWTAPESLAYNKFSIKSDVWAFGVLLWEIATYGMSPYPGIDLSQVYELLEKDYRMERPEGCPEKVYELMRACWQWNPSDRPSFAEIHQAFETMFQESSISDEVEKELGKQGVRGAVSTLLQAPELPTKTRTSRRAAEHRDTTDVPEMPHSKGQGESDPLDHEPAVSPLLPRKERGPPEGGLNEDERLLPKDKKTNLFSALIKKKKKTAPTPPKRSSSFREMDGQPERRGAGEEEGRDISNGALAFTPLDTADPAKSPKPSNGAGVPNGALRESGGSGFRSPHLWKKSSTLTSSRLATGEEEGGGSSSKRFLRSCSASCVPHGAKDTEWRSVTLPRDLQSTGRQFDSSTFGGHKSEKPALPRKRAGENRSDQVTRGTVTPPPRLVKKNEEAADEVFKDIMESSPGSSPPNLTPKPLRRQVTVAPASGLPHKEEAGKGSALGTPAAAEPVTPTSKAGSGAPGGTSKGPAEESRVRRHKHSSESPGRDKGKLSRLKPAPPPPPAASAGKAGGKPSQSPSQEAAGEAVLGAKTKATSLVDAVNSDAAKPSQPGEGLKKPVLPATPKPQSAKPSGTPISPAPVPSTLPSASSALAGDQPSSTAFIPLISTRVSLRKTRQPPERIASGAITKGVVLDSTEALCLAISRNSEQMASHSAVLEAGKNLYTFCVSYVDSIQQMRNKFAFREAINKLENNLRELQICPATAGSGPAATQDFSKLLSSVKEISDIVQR
# Description: Inhibition of human wild type full length N-terminal GST/6His-tagged ABL (P118 to S535 residues) expressed in Sf9 cells using abltide as substrate after 5 mins in presence of [gamma-32P]ATP by scintillation counting
# Kidney [3] = test: Drug uptake in BALB/C mouse kidney at 50 mg/kg, ip via bolus administration measured at 24 hrs post dose by UV/LC-MS; assay type: ADME, organism-based; conditions: in vivo
# Brain [4] = test: Prodrug conversion in BALB/C mouse brain assessed as N-(3-bromophenyl)-1-(2-chloro-2-phenylethyl)-6-(2-morpholinoethylthio)-1H-pyrazolo[3,4-d]pyrimidin-4-amine formation at 50 mg/kg, ip via bolus administration measured at 24 hrs post dose by UV/LC-MS; assay type: ADME, organism-based; conditions: in vivo
# [5] = MRT in BALB/C mouse at 50 mg/kg, ip administered via bolus dose using DMSO formulation measured at 1 to 24 hrs post dose by UV/LC-MS analysis; assay type: ADME, organism-based; conditions: in vivo
# Plasma [6] = test: Plasma concentration in BALB/C mouse at 50 mg/kg, ip via bolus administration measured at 24 hrs post dose by UV/LC-MS relative to N-(3-bromophenyl)-1-(2-chloro-2-phenylethyl)-6-(2-morpholinoethylthio)-1H-pyrazolo[3,4-d]pyrimidin-4-amine; assay type: ADME, organism-based; conditions: in vivo
# [7] = Metabolic stability in human liver microsomes assessed as parent compound remaining at 50 uM after 1 hr in presence of NADPH regenerating system by UV/LC-MS analysis; assay type: ADME, microsome; conditions: read-out: Stability
# Liver [8] = test: Drug uptake in BALB/C mouse liver at 50 mg/kg, ip via bolus administration measured at 24 hrs post dose by UV/LC-MS; assay type: ADME, organism-based; conditions: in vivo
# [9] = Half life in methanol at 100 uM by UV/LC-MS analysis; assay type: physicochemical
# Kidney [10] = test: Prodrug conversion in BALB/C mouse kidney assessed as N-(3-bromophenyl)-1-(2-chloro-2-phenylethyl)-6-(2-morpholinoethylthio)-1H-pyrazolo[3,4-d]pyrimidin-4-amine formation at 50 mg/kg, ip via bolus administration measured at 24 hrs post dose by UV/LC-MS; assay type: ADME, organism-based; conditions: in vivo
# [11] = Half life in mouse plasma by UV/LC-MS analysis; assay type: ADME, cell-free
# [12] = Antitumor activity against human U87 cells xenografted in nude immunodeficient CD1 mouse assessed as mean survival time at 50 mg/kg, po administered every other day (reference value: 30 day); assay type: functional, U-87MG ATCC
# [13] = Drug uptake in cytoplasm of human U87 cells at 20 uM after 5 hrs by UV/LC-MS analysis; assay type: ADME
# [14] = AUC (0 to infinity) in BALB/C mouse at 50 mg/kg, ip administered via bolus dose using DMSO formulation measured at 1 to 24 hrs post dose by UV/LC-MS analysis; assay type: ADME, organism-based; set-up: dose 50 mg/kg, time infinity, route intraperitoneal; conditions: in vivo
# [15] = target: Proto-oncogene tyrosine-protein kinase Src (Homo sapiens, UniProt P12931); test: biochemical
# Chain of Proto-oncogene tyrosine-protein kinase Src (P12931 2-536 limits assumed): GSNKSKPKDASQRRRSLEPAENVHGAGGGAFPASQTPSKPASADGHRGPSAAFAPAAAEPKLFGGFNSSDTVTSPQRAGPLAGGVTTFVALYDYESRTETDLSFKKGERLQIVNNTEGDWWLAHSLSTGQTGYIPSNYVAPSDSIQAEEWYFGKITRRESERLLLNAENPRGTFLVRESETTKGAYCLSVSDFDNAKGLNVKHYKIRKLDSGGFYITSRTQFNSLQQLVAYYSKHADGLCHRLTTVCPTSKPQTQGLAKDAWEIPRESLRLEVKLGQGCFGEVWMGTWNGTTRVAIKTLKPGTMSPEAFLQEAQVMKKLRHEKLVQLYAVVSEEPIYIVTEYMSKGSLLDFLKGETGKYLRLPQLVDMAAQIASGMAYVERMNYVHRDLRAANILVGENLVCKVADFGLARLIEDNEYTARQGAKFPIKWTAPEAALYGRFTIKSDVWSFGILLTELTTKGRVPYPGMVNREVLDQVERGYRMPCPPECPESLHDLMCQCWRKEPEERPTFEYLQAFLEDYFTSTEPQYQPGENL
# Description: Inhibition of human wild type full length N-terminal GST/6His-tagged SRC (M1 to L536 residues) expressed in baculovirus infected Sf9 cells using src peptide as substrate after 5 mins in presence of [gamma-32P]ATP by scintillation counting method
# Liver carboxylesterase 1 = target: T1, Liver carboxylesterase 1 (Homo sapiens, UniProt P23141); test: Drug metabolism assessed as human CES1-mediated compound hydrolysis at 10 to 100 uM after 1 hr by UV/HPLC-MS analysis; assay type: ADME
# T1 sequence (P23141 whole entry): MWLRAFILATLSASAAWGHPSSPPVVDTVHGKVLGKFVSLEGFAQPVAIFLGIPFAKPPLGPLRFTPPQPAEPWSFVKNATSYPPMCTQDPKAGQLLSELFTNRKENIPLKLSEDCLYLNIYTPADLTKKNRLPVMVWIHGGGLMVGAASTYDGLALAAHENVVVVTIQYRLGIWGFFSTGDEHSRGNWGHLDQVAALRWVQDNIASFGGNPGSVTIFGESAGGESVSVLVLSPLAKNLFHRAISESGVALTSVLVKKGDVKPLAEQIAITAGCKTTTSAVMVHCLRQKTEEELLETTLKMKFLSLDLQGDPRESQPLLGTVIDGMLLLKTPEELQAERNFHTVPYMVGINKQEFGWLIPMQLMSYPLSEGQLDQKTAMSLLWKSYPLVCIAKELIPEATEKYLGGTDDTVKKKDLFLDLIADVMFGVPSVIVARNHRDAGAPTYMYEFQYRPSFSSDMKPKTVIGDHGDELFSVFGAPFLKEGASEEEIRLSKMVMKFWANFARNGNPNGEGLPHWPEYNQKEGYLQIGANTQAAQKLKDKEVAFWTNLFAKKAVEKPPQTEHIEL
# physchem [16] = conditions: PAMPA
# Description: Apparent permeability at 500 uM after 5 hrs by Gastro-intestinal-based PAMPA
# cells [17] = conditions: Homo sapiens, U-87 MG, 72 h
# Description: Cytotoxicity against human U87 cells assessed as reduction in cell viability after 72 hrs by trypan blue assay
# [18] = Prodrug activation in human U87 cells assessed as N-(3-bromophenyl)-1-(2-chloro-2-phenylethyl)-6-(2-morpholinoethylthio)-1H-pyrazolo[3,4-d]pyrimidin-4-amine formation at 20 uM up to 25 hrs by UV/LC-MS analysis; assay type: cell-based; conditions: u-87mg atcc
# Plasma [19] = test: Prodrug conversion in BALB/C mouse plasma assessed as N-(3-bromophenyl)-1-(2-chloro-2-phenylethyl)-6-(2-morpholinoethylthio)-1H-pyrazolo[3,4-d]pyrimidin-4-amine formation at 50 mg/kg, ip via bolus administration measured at 24 hrs post dose by UV/LC-MS; assay type: ADME, organism-based; conditions: in vivo
# [20] = Half life in PBS buffer at 100 uM at pH 7.4 by UV/LC-MS analysis; assay type: physicochemical
# physchem [21] = conditions: PAMPA; remark: listed apart in the source
# Description: Apparent permeability at 500 uM after 5 hrs by Blood-Brain Barrier-based PAMPA
# [22] = AUC (0 to 24 hrs) in BALB/C mouse at 50 mg/kg, ip administered via bolus dose using DMSO formulation measured at 1 to 24 hrs post dose by UV/LC-MS analysis; assay type: ADME, organism-based; set-up: dose 50 mg/kg, time < 24 hr, route intraperitoneal; conditions: in vivo
# [23] = Drug uptake in cytoplasm of human U87 cells at 20 uM after 2 hrs by UV/LC-MS analysis; assay type: ADME
# [24] = Half life in BALB/C mouse at 50 mg/kg, ip administered via bolus dose using DMSO formulation measured at 1 to 24 hrs post dose by UV/LC-MS analysis; assay type: ADME, organism-based; conditions: in vivo
# cells [25] = conditions: Homo sapiens, U-87 MG, 48 h
# Description: Cytotoxicity against human U87 cells assessed as reduction in cell viability after 48 hrs by trypan blue assay
# Liver [26] = test: Prodrug conversion in BALB/C mouse liver assessed as N-(3-bromophenyl)-1-(2-chloro-2-phenylethyl)-6-(2-morpholinoethylthio)-1H-pyrazolo[3,4-d]pyrimidin-4-amine formation at 50 mg/kg, ip via bolus administration measured at 24 hrs post dose by UV/LC-MS; assay type: ADME, organism-based; conditions: in vivo
# [27] = Plasma concentration in BALB/C mouse at 50 mg/kg, ip via bolus administration measured at 24 hrs post dose by UV/LC-MS; assay type: ADME, organism-based
# [28] = Metabolic stability in mouse liver microsomes assessed as unmetabolized compound remaining at 50 uM after 1 hr in presence of NADPH regenerating system by UV/LC-MS analysis; assay type: ADME, microsome; conditions: read-out: Stability
# [29] = Plasma clearance in BALB/C mouse at 50 mg/kg, ip administered via bolus dose using DMSO formulation measured at 1 to 24 hrs post dose by UV/LC-MS analysis; assay type: ADME, organism-based
# [30] = Prodrug conversion in BALB/C mouse adipose tissue assessed as N-(3-bromophenyl)-1-(2-chloro-2-phenylethyl)-6-(2-morpholinoethylthio)-1H-pyrazolo[3,4-d]pyrimidin-4-amine formation at 50 mg/kg, ip via bolus administration measured at 24 hrs post dose by UV/LC-MS; assay type: ADME, organism-based; conditions: in vivo
# [31] = Cmax in BALB/C mouse at 50 mg/kg, ip administered via bolus dose using DMSO formulation measured at 1 to 24 hrs post dose by UV/LC-MS analysis; assay type: ADME, organism-based; set-up: dose 50 mg/kg, route intraperitoneal; conditions: in vivo
# cells [32] = conditions: Homo sapiens, U-87 MG, 24 h
# Description: Cytotoxicity against human U87 cells assessed as reduction in cell viability after 24 hrs by trypan blue assay
# Brain [33] = test: Drug uptake in BALB/C mouse brain at 50 mg/kg, ip via bolus administration measured at 24 hrs post dose by UV/LC-MS analysis; assay type: ADME, organism-based; conditions: in vivo
# physchem [34] = conditions: aqueous
# Description: Aqueous solubility of compound at 1 mg after 24 hrs by UV/LC-MS analysis
# [35] = Tmax in BALB/C mouse at 50 mg/kg, ip administered via bolus dose using DMSO formulation measured at 1 to 24 hrs post dose by UV/LC-MS analysis; assay type: ADME, organism-based; conditions: in vivo
structure (smiles),measurement,setting,value
CN1CCN(CCOC(=O)N(c2cccc(Br)c2)c2nc(SCCN3CCOCC3)nc3c2cnn3CC(Cl)c2ccccc2)CC1 (stereo unspecified),Drug uptake,[1],1.8 nmol/g
same,Ki,[2],> 100 µM
same,Drug uptake,Kidney [3],6.8 nmol/g
same,Drug metabolism,Brain [4],5.2 nmol/g
same,MRT,[5],33.3 h
same,fold change (FC),Plasma [6],2
same,"remaining at 1 h, 50 µM",[7],93.6%
same,Drug uptake,Liver [8],0.8 nmol/g
same,half-life at 100 µM,[9],> 48 h
same,Drug metabolism,Kidney [10],2.6 nmol/g
same,half-life,[11],1.16 h
same,MST,[12],49 days
same,Drug uptake,[13],Active
same,AUC(0-inf),[14],265 µM·h
same,Ki,[15],> 100 µM
same,Drug metabolism,Liver carboxylesterase 1,Metabolite_Notdetected
same,"Papp at 5 h, 500 µM",physchem [16],2.13 ×10⁻⁶ cm/s
same,IC50,cells [17],1.8 µM
same,Drug metabolism,[18],Metabolite_Detected
same,Drug metabolism,Plasma [19],3.3 nmol/mL
same,half-life at 100 µM,[20],> 48 h
same,"Papp at 5 h, 500 µM",physchem [21],2.91 ×10⁻⁶ cm/s
same,AUC(0-t) at 24 h,[22],136 µM·h
same,Drug uptake,[23],Active
same,half-life,[24],23.8 h
same,IC50,cells [25],5.2 µM
same,Drug metabolism,Liver [26],3.6 nmol/g
same,concentration at 24 h,[27],5.4 µM
same,"remaining at 1 h, 50 µM",[28],93.1%
same,CL/F,[29],0.14 mL/min
same,Drug metabolism,[30],20.5 nmol/g
same,Cmax,[31],8.78 µM
same,IC50,cells [32],7.5 µM
same,Drug uptake,Brain [33],6.4 nmol/g
same,solubility at 24 h,physchem [34],8.7 µg/mL
same,Tmax,[35],1 h
